Like-named read-outs stand apart in the source and are kept apart here.
Columns and labels:
CCK-2 receptor [1] = experiment: Inhibition of the binding of [125I]-BH-CCK-8 to the cortical membrane of guinea pigs; design: species or system guinea pig; settings: IC50 CCK-2 (guinea pig cortex) / IC50 CCK-1 (rat pancreatic acini, Table 2)
Procedure: (§1) For this purpose binding tests were performed on cerebral cortex of male albino guinea pigs outbred from the Hartley strain, using as marked binder the [^125I]-BH-CCK-8 sulphate, according to the procedure described by Makovec F. [J. Med. Chem. 35, (1992),28].
(§2) The incubation of the cerebral membranes together with the radioactive tracers and the compounds under study was effected on multi-well plates for 120 minutes at 25° C. Each well contained membrane corresponding to about 0.5 mg of proteins/ml and 25 pM of marked binder in a total volume of 250 micro litres. The specific binding was determined as the difference between the binding in the absence and in the presence of CCK-8, 1.10^−6M. At the end of the incubation a rapid filtration of the plate was performed under vacuum and the radioactivity of the individual filters extracted from the wells was measured with a γ-emission counter. The results obtained are shown in Table 3, in which the tested compounds are indicated, the IC50 calculated with the regression method on a set of at least 3 tests for each compound studied and an index derived from the ratio of the affinity obtained for the two types of receptor CCK-2 and CCK-1.

CCK-2 receptor [2] = molecular target: T1, CCK-2 receptor (Cavia porcellus, UniProt H0VZC5); experiment: as above; design: species or system guinea pig; settings: 120 minutes at 25° C.; 25 pM marked binder; at least 3 tests
T1 construct: The incubation of the cerebral membranes together with the radioactive tracers and the compounds under study; from tissue; host or cells: cerebral cortex membranes of male albino Hartley guinea pigs
T1 sequence (H0VZC5 1-426): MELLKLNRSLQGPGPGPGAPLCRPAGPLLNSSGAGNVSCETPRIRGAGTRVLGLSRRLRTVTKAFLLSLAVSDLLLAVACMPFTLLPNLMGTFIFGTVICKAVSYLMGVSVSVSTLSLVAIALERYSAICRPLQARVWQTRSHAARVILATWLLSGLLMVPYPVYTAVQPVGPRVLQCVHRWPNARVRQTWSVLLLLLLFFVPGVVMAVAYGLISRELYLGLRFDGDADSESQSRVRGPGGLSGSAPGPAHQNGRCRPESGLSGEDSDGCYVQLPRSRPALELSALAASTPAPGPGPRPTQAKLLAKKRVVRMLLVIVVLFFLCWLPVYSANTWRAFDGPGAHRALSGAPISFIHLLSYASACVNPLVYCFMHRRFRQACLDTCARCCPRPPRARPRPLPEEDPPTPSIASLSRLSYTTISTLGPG
Procedure: as §1, §2

[3] = molecular target: T2, CCK-1 (guinea pig gall bladder) (Cavia porcellus, UniProt Q63931); experiment: Inhibition of the in vitro CCK-8 induced contraction of guinea pig gall bladder; format: cell-based; settings: CCK-8 5 ng/ml; average of at least two experiments, 6-8 concentrations
T2 construct: A guinea pig gall bladder stimulated in vitro by CCK-8; from tissue; host or cells: isolated guinea pig gall bladder
T2 sequence (Q63931 1-430): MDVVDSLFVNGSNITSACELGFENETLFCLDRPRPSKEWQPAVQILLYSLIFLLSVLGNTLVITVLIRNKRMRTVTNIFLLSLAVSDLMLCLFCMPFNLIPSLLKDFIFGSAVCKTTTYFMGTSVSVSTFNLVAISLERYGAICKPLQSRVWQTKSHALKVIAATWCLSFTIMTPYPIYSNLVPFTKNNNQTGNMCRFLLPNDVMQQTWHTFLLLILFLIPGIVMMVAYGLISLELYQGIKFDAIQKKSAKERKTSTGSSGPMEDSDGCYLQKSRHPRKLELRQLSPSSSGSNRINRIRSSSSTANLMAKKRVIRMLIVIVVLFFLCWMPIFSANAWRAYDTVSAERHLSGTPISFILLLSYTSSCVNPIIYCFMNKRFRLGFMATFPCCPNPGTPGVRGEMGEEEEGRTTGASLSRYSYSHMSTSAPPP
From the text: A guinea pig gall bladder stimulated in vitro by CCK-8 according to the method described by Makovec et al. was used as an experimental model. [Arzneim. Forsch. Drug Res. 35 (7), 1048 (1985)]. The results thus obtained are illustrated in the following Table 4 in which the values of IC50 (moles/litre) are reported.

CCK-1 receptors = molecular target: T3, CCK-1 receptors (Rattus norvegicus, UniProt P30551); experiment: Inhibition of binding of [125I]-BH-CCK-8 to isolated rat pancreatic acini; settings: for affinity for the CCK-1 receptors of the pancreatic acini of rat, in words: summary of Table 2
T3 construct: The pancreatic acini obtained from the outbred male rat pancreas of the Sprague Dawley strain; from tissue; host or cells: isolated pancreatic acini of male Sprague Dawley rats
T3 sequence (P30551 1-444): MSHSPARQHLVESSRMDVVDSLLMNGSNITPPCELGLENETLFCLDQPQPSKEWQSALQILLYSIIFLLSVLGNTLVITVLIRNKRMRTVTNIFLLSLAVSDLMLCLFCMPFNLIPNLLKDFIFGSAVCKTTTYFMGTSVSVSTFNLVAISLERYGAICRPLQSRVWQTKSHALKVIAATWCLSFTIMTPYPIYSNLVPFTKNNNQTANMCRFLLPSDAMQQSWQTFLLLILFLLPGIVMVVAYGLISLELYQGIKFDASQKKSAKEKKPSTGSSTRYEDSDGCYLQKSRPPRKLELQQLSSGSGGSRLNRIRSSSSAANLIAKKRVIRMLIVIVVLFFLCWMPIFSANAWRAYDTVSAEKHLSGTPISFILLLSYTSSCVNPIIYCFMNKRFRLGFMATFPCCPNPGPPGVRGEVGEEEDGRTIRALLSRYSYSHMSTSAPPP
Procedure: The pancreatic acini obtained from the outbred male rat pancreas of the Sprague Dawley strain, were incubated in the presence of radioactive tracers and the compound studied for 30 minutes at 37° C. After having discarded the supernatant, the radioactivity associated with the pellet was determined with a liquid scintillator. The specific binding was determined as the difference between the binding in the absence and in the presence of CCK-8, 1.10^−6M. […] The values of IC50 reported were calculated with the […] of a set of at least 3 experiences for each compound studied.

[4] = 30 minutes at 37° C., at least 3 experiments, read-out: IC50, inhibition of binding of [125I]-BH-CCK-8 to isolated rat pancreatic acini

Row | Compound | index derived from the ratio of the affinity obtained for the two types of receptor CCK-2 and CCK-1 (CCK-2 receptor [1]) | IC50 (CCK-2 receptor [2]) [nM] | IC50 [3] [nM] | IC50 (CCK-1 receptors) [nM] | affinity for the CCK-1 receptors of the pancreatic acini of rat, in words (CCK-1 receptors) | IC50 (CCK-1 receptors; [4]) [nM]
1 | O=C(Nc1ccccc1C(=O)NC(CCc1ccccc1)C(=O)O)c1cc2ccccc2[nH]1 (centres unmarked) [Compound 20] | 158.6 | 2220 | 35 | 14 | – | –
2 | O=C(Nc1ccccc1C(=O)N[C@H](CCc1ccccc1)C(=O)O)c1cc2ccccc2[nH]1 [Compound 21] | 422.2 | 3800 | 20 | 9 | nanomolar level | –
3 | O=C(Nc1ccccc1C(=O)NC(CCc1ccccc1)C(=O)O)c1cc2cc(F)ccc2[nH]1 (centres unmarked) [Compound 23] | 1542.9 | 10800 | 15 | – | nanomolar level | 7
4 | Cc1ccccc1CCC(NC(=O)c1ccccc1NC(=O)c1cc2ccccc2[nH]1)C(=O)O (centres unmarked) [Compound 25] | >4286 | > 30000 | 8 | – | nanomolar level | 7
5 | Cc1ccccc1CCC(NC(=O)c1ccccc1NC(=O)c1cc2cc(F)ccc2[nH]1)C(=O)O (centres unmarked) [Compound 26] | 572.2 | 5150 | 43 | – | nanomolar level | 9
6 | COc1ccccc1CCC(NC(=O)c1ccccc1NC(=O)c1cc2ccccc2[nH]1)C(=O)O (centres unmarked) [Compound 30] | 437.5 | 3500 | 30 | – | nanomolar level | 8
